What all share (assay): MIC, liquid medium test tube series dilution test
The subject of one assay is Psdm. aerug. Walter. Format: cell-based, Pseudomonas aerug. The following applies: 24 hours, 37°C. Here is the method:
(§1) The chemotherapeutic activity of the new penicillins was tested in vivo and in vitro. The in vitro inhibition values (MIC = minimum inhibition concentration (see Tables 1 and 2) were determined in a liquid medium in the test tube series dilution test, with readings being taken after 24 hours' incubation at 37°C. The MIC is indicated by the non-turbid test tube in the dilution series. A complete medium of the following composition was used as the nutrient medium:
(§2) The figures quoted in the Examples for the effectiveness against certain bacteria (units/ml) are minimum inhibitory concentrations in the test tube series dilution test after 24 hours' incubation.

Another assay has as its system Proteus vulg. 3400. Format: cell-based, Proteus vulgaris. The following applies: Proteus vulg. 3400, 24 hours, 37°C. Here is the method:
as §1, §2

For another assay, the system named is E. coli A 261. Format: cell-based. The note with it: E. coli A 261, 24 hours, 37°C. Here is the method: as §1, §2
Another assay has as its system E. coli C 165. Format: cell-based. The note with it: E. coli C 165, 24 hours, 37°C. The method, then:
as §1, §2

The subject of another assay is Klebsiella 63. Format: cell-based. The note with it: Klebsiella 63, 24 hours, 37°C. The method, then: as §1, §2
Assay [1] deals with Streptoc. faec. ATCC 9790. Format: cell-based. The following applies: Strep. faec. (Enterococcus) ATCC 9790, 24 hours, 37°C. The method, then: as §1, §2
A further assay relates to Staph. aureus 133. Format: cell-based, Staphylococcus aureus. The following applies: Staph. aureus 133, 24 hours, 37°C. Here is the method: as §1, §2
The next assay concerns Proteus vulg. 1017. Format: cell-based, Proteus vulgaris. The note with it: Proteus vulg. 1017, 24 hours, 37°C. Here is the method:
as §1, §2

A value given as a limit tells only on which side of the number the result lay.

For the molecule `CN(C(=O)CCCCl)C(=O)NC(C(=O)N[C@@H]1C(=O)N2[C@@H]1SC(C)(C)[C@@H]2C(=O)O)c1cccs1` (stereo partly drawn) [Example 5, Sodium D,L-(3-γ-chlorobutyryl-3-methyl-ureido)-(2-thienyl)methylpenicillin], the MIC against Psdm. aerug. Walter is 20-100 units/ml; in the assay with Proteus vulg. 3400 it was 20-100 units/ml; in the assay with E. coli A 261, 100-500 units/ml; against E. coli C 165, 4-20 units/ml; against Klebsiella 63 it was 20-100 units/ml; in assay [1], 100-500 units/ml. In the assay on Staph. aureus 133, this molecule had an MIC of less than 0.8 units/ml.
With `COC(=O)N(C)C(=O)NC(C(=O)N[C@@H]1C(=O)N2[C@@H]1SC(C)(C)[C@@H]2C(=O)O)c1cccs1` (stereo partly drawn) [Example 20, Sodium D,L-α-(3-methoxycarbonyl-3-methyl-ureido)-2-thienylmethylpenicillin], the MIC with Psdm. aerug. Walter is 100-500 units/ml; in the assay on Proteus vulg. 3400 it was 100-500 units/ml; in the assay with E. coli A 261, more than 500 units/ml; against E. coli C 165 it was 20-100 units/ml; in the assay on Klebsiella 63 it was 20-100 units/ml; in assay [1], 20-100 units/ml. The MIC against Staph. aureus 133 is reported as less than 0.8 units/ml.
In the case of `C=CCN(C(=O)NC(C(=O)N[C@@H]1C(=O)N2[C@@H]1SC(C)(C)[C@@H]2C(=O)O)c1cccs1)C(=O)c1ccccc1` (stereo partly drawn) [Example 21, Sodium D,L-α-(3-benzoyl-3-allyl-ureido)-2-thienylmethylpenicillin], the MIC was 100-500 units/ml with Psdm. aerug. Walter; 20-100 units/ml against Proteus vulg. 3400; more than 500 units/ml with E. coli A 261; 20-100 units/ml against E. coli C 165; 20-100 units/ml against Klebsiella 63; 100-500 units/ml in assay [1]. In the assay on Staph. aureus 133, this molecule yielded an MIC of less than 0.8 units/ml.
For the molecule `CSc1ccc(C(NC(=O)N(C)C(=O)c2ccccc2)C(=O)N[C@@H]2C(=O)N3[C@@H]2SC(C)(C)[C@@H]3C(=O)O)cc1` (stereo partly drawn) [Example 33, Sodium α-(3-benzoyl-3-methyl-ureido)-4-methylthiobenzylpenicillin], the MIC with Psdm. aerug. Walter was 4-20 units/ml; against Proteus vulg. 1017, 4-20 units/ml; against E. coli A 261, 100-500 units/ml; against E. coli C 165, 4-20 units/ml; in the assay on Klebsiella 63, 4-20 units/ml; in assay [1], 20-100 units/ml. The molecule further gave an MIC against Staph. aureus 133 of less than 0.8 units/ml.
`CN(C(=O)CCCl)C(=O)NC(C(=O)N[C@@H]1C(=O)N2[C@@H]1SC(C)(C)[C@@H]2C(=O)O)C1CC=CCC1` (stereo partly drawn) [Example 36, Sodium α-(3-β-chloropropionyl-3-methyl-ureido)-cyclohex-3-enylmethylpenicillin]: the MIC in the assay with Psdm. aerug. Walter is given as more than 500 units/ml; against Proteus vulg. 1017, more than 500 units/ml; against E. coli A 261, more than 500 units/ml; with E. coli C 165, 100-500 units/ml; with Klebsiella 63, more than 500 units/ml; in assay [1] it was 100-500 units/ml. The MIC in the assay with Staph. aureus 133 is on record as 4-20 units/ml.
`CC(=O)N(Cc1ccccc1)C(=O)N[C@@H](C(=O)N[C@@H]1C(=O)N2[C@@H]1SC(C)(C)[C@@H]2C(=O)O)c1ccccc1` [Example 87] gave an MIC in the assay on Staph. aureus 133 of less than 0.8 units/ml.
Same read-out and setting: under `CN(C(=O)N[C@@H](C(=O)N[C@@H]1C(=O)N2[C@@H]1SC(C)(C)[C@@H]2C(=O)O)c1ccccc1)C(=O)c1ccco1` [Example 91, Sodium D(-)-α-(3-[2-furoyl]-3-methyl-ureido)-benzylpenicillin] stands less than 0.8 units/ml.
Consider `CCCN(C(=O)N[C@@H](C(=O)N[C@@H]1C(=O)N2[C@@H]1SC(C)(C)[C@@H]2C(=O)O)c1ccccc1)C(=O)c1ccco1` [Example 92 B, Sodium D (-)-α-(3-[2-furoyl]-3-n-propyl-ureido)-benzylpenicillin], for which the results for the MIC against E. coli A 261 and with Staph. aureus 133 were more than 500 units/ml and less than 0.8 units/ml, respectively.
The like results for `CCN(C(=O)N[C@@H](C(=O)N[C@@H]1C(=O)N2[C@@H]1SC(C)(C)[C@@H]2C(=O)O)c1ccccc1)C(=O)c1ccco1` [Example 93 B, Sodium D(-)-α-(3-[2-furoyl]-3-ethyl-ureido)-benzylpenicillin] were, in that order, more than 500 units/ml and less than 0.8 units/ml.
For the molecule `CC1(C)S[C@@H]2[C@H](NC(=O)[C@H](NC(=O)N(C(=O)c3ccccc3)c3ccccc3)c3ccccc3)C(=O)N2[C@H]1C(=O)O` [Example 99 B, Sodium D(-)-α-(3-benzoyl-3-phenyl-ureido)-benzylpenicillin], the MIC with Psdm. aerug. Walter is recorded as 100-500 units/ml; with Proteus vulg. 1017 it was approximately 500 units/ml; against E. coli A 261, more than 500 units/ml; with E. coli C 165, 20-100 units/ml; with Klebsiella 63, more than 500 units/ml; in assay [1], 100-500 units/ml. In the assay with Staph. aureus 133, the MIC was less than 0.8 units/ml.
Consider `CC1(C)S[C@@H]2[C@H](NC(=O)[C@H](NC(=O)N3CCCCCC3=O)c3ccccc3)C(=O)N2[C@H]1C(=O)O` [Example 101 B, Sodium D(-)-α-(hexahydroazepin-2-on-1-yl-carbonyl-amino)-benzylpenicillin], for which the MIC against Psdm. aerug. Walter is recorded as 100-500 units/ml; against Proteus vulg. 1017 it was 100-500 units/ml; against E. coli A 261, more than 500 units/ml; in the assay with E. coli C 165, 20-100 units/ml; against Klebsiella 63, 100-500 units/ml; in assay [1], approximately 20 units/ml. Besides, the MIC in the assay on Staph. aureus 133 was less than 0.8 units/ml.
In the case of `CC1(C)S[C@@H]2[C@H](NC(=O)[C@H](NC(=O)N3CCCC3=O)c3ccccc3)C(=O)N2[C@H]1C(=O)O` [Example 102, Sodium D(-)-β-(pyrrolid-2-on-1-yl-carbonylamino)-benzylpenicillin], the MIC was more than 500 units/ml in the assay with E. coli A 261 and less than 0.8 units/ml in the assay with Staph. aureus 133.
As to `CN(C=O)C(=O)N[C@@H](C(=O)N[C@@H]1C(=O)N2[C@@H]1SC(C)(C)[C@@H]2C(=O)O)c1ccccc1` [Example 103, Sodium D(-)-β-(3-formyl-3-methyl-ureido)-benzylpenicillin], the MIC in the assay with Proteus vulg. 1017 is 100-500 units/ml; against E. coli A 261, more than 500 units/ml; against E. coli C 165, 4-20 units/ml; in assay [1] it was 20-100 units/ml; with Staph. aureus 133, less than 0.8 units/ml.
As for `CCCN(C(=O)N[C@@H](C(=O)N[C@@H]1C(=O)N2[C@@H]1SC(C)(C)[C@@H]2C(=O)O)c1ccccc1)C(=O)c1ccc(OC)c([N+](=O)[O-])c1` [Example 109, Sodium D(-)-α-(3-[3-nitro-4-methoxybenzoyl]-3-n-propyl-uredio)-benzylpenicillin], the MIC against Psdm. aerug. Walter is recorded as 50-100 units/ml; against Proteus vulg. 1017, 20-100 units/ml; in the assay with E. coli A 261 it was more than 500 units/ml; in the assay with E. coli C 165, 4-20 units/ml; against Klebsiella 63, 100-500 units/ml; in assay [1], 4-20 units/ml. In the assay with Staph. aureus 133, this molecule came in with an MIC of 0.8 units/ml.
As for “Sodium D(-)-α-(3-[2-furoyl]-3-phenyl-ureido)-benzylpenicillin [Example 105 B]”, the MIC against Psdm. aerug. Walter is more than 500 units/ml; against Proteus vulg. 1017 it was more than 500 units/ml; against E. coli A 261, more than 500 units/ml; in the assay with E. coli C 165, 4-20 units/ml; with Klebsiella 63, 100-500 units/ml; in assay [1] it was 20-100 units/ml. Moreover, in the assay on Staph. aureus 133, the MIC is less than 0.8 units/ml.

Values taken from patent publication US3974140A, “Ureidoacetamido-penicillins” (Bayer Aktiengesellschaft, priority 1970, dated 1976).
